Results as given in patent publication US7365053B2, “Selective N-acylation of A82846 glygopeptides analogs” (priority 2000, dated 2008).
Values after ≈ are worked out from the molar mass of the structure shown.

Assays:
[1] = tested on: Enterococcus faecalis 2041; assay: Broth micro-dilution MIC; assay type: cell-based; conditions: BHI medium
Experimental: (§1) The compounds of the present invention have in vitro activity against Gram-positive pathogenic bacteria. The antibacterial activity of the present compounds is illustrated in Tables III and IV. The minimal inhibitory concentrations (MICs) were determined using a standard broth micro-dilution assay. Table IV presents a comparison of the activity of illustrative compounds against representative vancomycin-resistant and vancomycin-sensitive enterococci (Enterococcus faecium and Enterococcus faecalis), mean geometric MIC (mcg/mL), as determined by the standard broth microdilution assay.
(§2) Assays for antimicrobial activity were performed using microbroth susceptibility testing methods as described by the NCCLS (National Committee for Clinical Laboratories Standards. 1990. Approved standard M7-A2. Methods for dilution antimicrobial susceptibility testing for bacteria that grow aerobically, 2 ed., Villanova Pa.). Brain-heart infusion medium (BHI) was used for testing of enterococci, and NCCLS recommendations for medium were followed for other bacteria.

[2] = tested on: Enterococcus faecalis 276; assay: Broth micro-dilution MIC; assay type: cell-based; conditions: BHI medium
Experimental: as §1, §2

[3] = tested on: Enterococcus faecium 180-1; assay: Broth micro-dilution MIC; assay type: cell-based; conditions: BHI medium
Experimental: as §1, §2

[4] = tested on: Enterococcus faecium 180; assay: Broth micro-dilution MIC; assay type: cell-based; conditions: BHI medium
Experimental: as §1, §2

[5] = tested on: Enterococcus gallinarum 245; assay: Broth micro-dilution MIC; assay type: cell-based; conditions: BHI medium
Experimental: as §1, §2

[6] = tested on: Escherichia coli EC14; assay: Broth micro-dilution MIC; assay type: cell-based
Experimental: as §1, §2

[7] = tested on: Haemophilus influenzae RD; assay: Broth micro-dilution MIC; assay type: cell-based
Experimental: as §1, §2

[8] = tested on: Staphylococcus aureus 446; assay: Broth micro-dilution MIC; assay type: cell-based
Experimental: as §1, §2

[9] = tested on: Staphylococcus aureus 447; assay: Broth micro-dilution MIC; assay type: cell-based
Experimental: as §1, §2

[10] = tested on: Staphylococcus aureus 489; assay: Broth micro-dilution MIC; assay type: cell-based
Experimental: as §1, §2

[11] = tested on: Staphylococcus aureus 491; assay: Broth micro-dilution MIC; assay type: cell-based
Experimental: as §1, §2

[12] = tested on: Staphylococcus aureus S13E; assay: Broth micro-dilution MIC; assay type: cell-based
Experimental: as §1, §2

[13] = tested on: Staphylococcus aureus SA1199A; assay: Broth micro-dilution MIC; assay type: cell-based
Experimental: as §1, §2

[14] = tested on: Staphylococcus aureus SA1199B; assay: Broth micro-dilution MIC; assay type: cell-based
Experimental: as §1, §2

[15] = tested on: Staphylococcus aureus SA1199; assay: Broth micro-dilution MIC; assay type: cell-based
Experimental: as §1, §2

[16] = tested on: Staphylococcus aureus X400; assay: Broth micro-dilution MIC; assay type: cell-based
Experimental: as §1, §2

[17] = tested on: Staphylococcus aureus X778; assay: Broth micro-dilution MIC; assay type: cell-based
Experimental: as §1, §2

[18] = tested on: Staphylococcus epidermidis 270; assay: Broth micro-dilution MIC; assay type: cell-based
Experimental: as §1, §2

[19] = tested on: Staphylococcus haemolyticus 105; assay: Broth micro-dilution MIC; assay type: cell-based
Experimental: as §1, §2

[20] = tested on: Staphylococcus haemolyticus 415; assay: Broth micro-dilution MIC; assay type: cell-based
Experimental: as §1, §2

[21] = tested on: Streptococcus pneumoniae P1; assay: Broth micro-dilution MIC; assay type: cell-based
Experimental: as §1, §2

[22] = tested on: Streptococcus pyogenes C203; assay: Broth micro-dilution MIC; assay type: cell-based
Experimental: as §1, §2

[23] = tested on: vancomycin-resistant enterococci; assay: In vitro activity against enterococci, broth microdilution; assay type: cell-based, Enterococcus faecium and Enterococcus faecalis; conditions: representative vancomycin-resistant enterococci (E. faecium and E. faecalis); BHI medium
Experimental: as §1, §2

[24] = tested on: vancomycin-sensitive enterococci; assay: as above; assay type: cell-based, Enterococcus faecium and Enterococcus faecalis; conditions: representative vancomycin-sensitive enterococci (E. faecium and E. faecalis); BHI medium
Experimental: as §1, §2

SMILES: CNC(CC(C)C)C(=O)NC1C(=O)NC(CC(N)=O)C(=O)NC2C(=O)NC3C(=O)NC(C(=O)NC(C(=O)O)c4cc(O)cc(O)c4-c4cc3ccc4O)C(OC3CC(C)(N)C(O)C(C)O3)c3ccc(c(Cl)c3)Oc3cc2cc(c3OC2OC(CO)C(O)C(O)C2OC2CC(C)(NC(=O)c3ccc(-c4ccccc4)cc3)C(O)C(C)O2)Oc2ccc(cc2Cl)C1O (centres unmarked) [Example 1]
- MIC [1]: 0.125 µg/mL (≈ 0.0705 µM)
- MIC [2]: 0.5 µg/mL (≈ 0.282 µM)
- MIC [3]: ≦.06 μg/ml
- MIC [4]: 0.25 µg/mL (≈ 0.141 µM)
- MIC [5]: 8 µg/mL (≈ 4.51 µM)
- MIC [6]: >64 µg/mL
- MIC [7]: >64 µg/mL
- MIC [8]: 2 µg/mL (≈ 1.13 µM)
- MIC [9]: 16 µg/mL (≈ 9.03 µM)
- MIC [10]: 0.5 µg/mL (≈ 0.282 µM)
- MIC [11]: 0.25 µg/mL (≈ 0.141 µM)
- MIC [12]: 2 µg/mL (≈ 1.13 µM)
- MIC [13]: 0.125 µg/mL (≈ 0.0705 µM)
- MIC [14]: 2 µg/mL (≈ 1.13 µM)
- MIC [15]: 2 µg/mL (≈ 1.13 µM)
- MIC [16]: 1 µg/mL (≈ 0.564 µM)
- MIC [17]: 1 µg/mL (≈ 0.564 µM)
- MIC [18]: 16 µg/mL (≈ 9.03 µM)
- MIC [19]: 1 µg/mL (≈ 0.564 µM)
- MIC [20]: 8 µg/mL (≈ 4.51 µM)
- MIC [21]: ≦.06 μg/ml
- MIC [22]: ≦.06 μg/ml
- Mean geometric MIC, Vancomycin Resistant Strains [23]: 11.3 µg/mL
- Mean geometric MIC, Vancomycin Sensitive Strains [24]: 0.38 µg/mL

SMILES: CCCCCCCC(=O)N(C)C(CC(C)C)C(=O)NC1C(=O)NC(CC(N)=O)C(=O)NC2C(=O)NC3C(=O)NC(C(=O)NC(C(=O)O)c4cc(O)cc(O)c4-c4cc3ccc4O)C(OC3CC(C)(N)C(O)C(C)O3)c3ccc(c(Cl)c3)Oc3cc2cc(c3OC2OC(CO)C(O)C(O)C2OC2CC(C)(N)C(O)C(C)O2)Oc2ccc(cc2Cl)C1O (centres unmarked) [Example 10, 1′-N-octanoyl-A82846B]
- MIC [1]: 0.25 µg/mL (≈ 0.145 µM)
- MIC [2]: 0.25 µg/mL (≈ 0.145 µM)
- MIC [3]: ≦.06 μg/ml
- MIC [4]: 32 µg/mL (≈ 18.6 µM)
- MIC [5]: 2 µg/mL (≈ 1.16 µM)
- MIC [6]: >64 µg/mL
- MIC [8]: 1 µg/mL (≈ 0.582 µM)
- MIC [9]: 1 µg/mL (≈ 0.582 µM)
- MIC [10]: 0.25 µg/mL (≈ 0.145 µM)
- MIC [11]: 0.25 µg/mL (≈ 0.145 µM)
- MIC [12]: 0.5 µg/mL (≈ 0.291 µM)
- MIC [13]: 0.125 µg/mL (≈ 0.0727 µM)
- MIC [14]: 0.5 µg/mL (≈ 0.291 µM)
- MIC [15]: 0.5 µg/mL (≈ 0.291 µM)
- MIC [16]: 0.5 µg/mL (≈ 0.291 µM)
- MIC [17]: 0.5 µg/mL (≈ 0.291 µM)
- MIC [18]: 0.5 µg/mL (≈ 0.291 µM)
- MIC [19]: 1 µg/mL (≈ 0.582 µM)
- MIC [20]: 16 µg/mL (≈ 9.31 µM)
- MIC [21]: ≦.06 μg/ml
- MIC [22]: ≦.06 μg/ml
- Mean geometric MIC, Vancomycin Resistant Strains [23]: 90 µg/mL
- Mean geometric MIC, Vancomycin Sensitive Strains [24]: 2.3 µg/mL

SMILES: CNC(CC(C)C)C(=O)NC1C(=O)NC(CC(N)=O)C(=O)NC2C(=O)NC3C(=O)NC(C(=O)NC(C(=O)O)c4cc(O)cc(O)c4-c4cc3ccc4O)C(OC3CC(C)(N)C(O)C(C)O3)c3ccc(c(Cl)c3)Oc3cc2cc(c3OC2OC(CO)C(O)C(O)C2OC2CC(C)(NC(=O)CCCCCCCc3ccccc3)C(O)C(C)O2)Oc2ccc(cc2Cl)C1O (centres unmarked) [Example 11]
- MIC [1]: ≦.06 μg/ml
- MIC [2]: 0.25 µg/mL (≈ 0.139 µM)
- MIC [3]: ≦.06 μg/ml
- MIC [4]: 0.5 µg/mL (≈ 0.279 µM)
- MIC [5]: 4 µg/mL (≈ 2.23 µM)
- MIC [6]: >64 µg/mL
- MIC [8]: 1 µg/mL (≈ 0.557 µM)
- MIC [9]: 2 µg/mL (≈ 1.11 µM)
- MIC [10]: 0.25 µg/mL (≈ 0.139 µM)
- MIC [11]: 0.125 µg/mL (≈ 0.0696 µM)
- MIC [12]: 0.25 µg/mL (≈ 0.139 µM)
- MIC [13]: ≦.06 μg/ml
- MIC [14]: 0.25 µg/mL (≈ 0.139 µM)
- MIC [15]: 1 µg/mL (≈ 0.557 µM)
- MIC [16]: 0.5 µg/mL (≈ 0.279 µM)
- MIC [17]: 0.125 µg/mL (≈ 0.0696 µM)
- MIC [18]: 1 µg/mL (≈ 0.557 µM)
- MIC [19]: ≦.06 μg/ml
- MIC [20]: 4 µg/mL (≈ 2.23 µM)
- MIC [21]: ≦.06 μg/ml
- MIC [22]: ≦.06 μg/ml
- Mean geometric MIC, Vancomycin Resistant Strains [23]: 9.5 µg/mL
- Mean geometric MIC, Vancomycin Sensitive Strains [24]: 0.093 µg/mL

SMILES: CNC(CC(C)C)C(=O)NC1C(=O)NC(CC(N)=O)C(=O)NC2C(=O)NC3C(=O)NC(C(=O)NC(C(=O)O)c4cc(O)cc(O)c4-c4cc3ccc4O)C(OC3CC(C)(NC(=O)CCCCCCCc4ccccc4)C(O)C(C)O3)c3ccc(c(Cl)c3)Oc3cc2cc(c3OC2OC(CO)C(O)C(O)C2OC2CC(C)(N)C(O)C(C)O2)Oc2ccc(cc2Cl)C1O (centres unmarked) [Example 12]
- MIC [1]: ≦.06 μg/ml
- MIC [2]: ≦.06 μg/ml
- MIC [3]: ≦.06 μg/ml
- MIC [4]: 2 µg/mL (≈ 1.11 µM)
- MIC [5]: 8 µg/mL (≈ 4.46 µM)
- MIC [6]: >64 µg/mL
- MIC [8]: 0.125 µg/mL (≈ 0.0696 µM)
- MIC [9]: 2 µg/mL (≈ 1.11 µM)
- MIC [10]: ≦.06 μg/ml
- MIC [11]: ≦.06 μg/ml
- MIC [12]: ≦.06 μg/ml
- MIC [13]: ≦.06 μg/ml
- MIC [14]: 0.125 µg/mL (≈ 0.0696 µM)
- MIC [15]: 0.25 µg/mL (≈ 0.139 µM)
- MIC [16]: 0.125 µg/mL (≈ 0.0696 µM)
- MIC [17]: ≦.06 μg/ml
- MIC [18]: 2 µg/mL (≈ 1.11 µM)
- MIC [19]: ≦.06 μg/ml
- MIC [20]: 8 µg/mL (≈ 4.46 µM)
- MIC [21]: ≦.06 μg/ml
- MIC [22]: ≦.06 μg/ml
- Mean geometric MIC, Vancomycin Resistant Strains [23]: 45 µg/mL
- Mean geometric MIC, Vancomycin Sensitive Strains [24]: 0.33 µg/mL

SMILES: CC(C)CC(C(=O)NC1C(=O)NC(CC(N)=O)C(=O)NC2C(=O)NC3C(=O)NC(C(=O)NC(C(=O)O)c4cc(O)cc(O)c4-c4cc3ccc4O)C(OC3CC(C)(N)C(O)C(C)O3)c3ccc(c(Cl)c3)Oc3cc2cc(c3OC2OC(CO)C(O)C(O)C2OC2CC(C)(N)C(O)C(C)O2)Oc2ccc(cc2Cl)C1O)N(C)C(=O)CCCCCCCc1ccccc1 (centres unmarked) [Example 13]
- MIC [1]: 0.25 µg/mL (≈ 0.139 µM)
- MIC [2]: 0.25 µg/mL (≈ 0.139 µM)
- MIC [3]: ≦.06 μg/ml
- MIC [4]: 8 µg/mL (≈ 4.46 µM)
- MIC [5]: 2 µg/mL (≈ 1.11 µM)
- MIC [6]: >64 µg/mL
- MIC [8]: 0.5 µg/mL (≈ 0.279 µM)
- MIC [9]: 0.5 µg/mL (≈ 0.279 µM)
- MIC [10]: 0.125 µg/mL (≈ 0.0696 µM)
- MIC [11]: 0.125 µg/mL (≈ 0.0696 µM)
- MIC [12]: 0.5 µg/mL (≈ 0.279 µM)
- MIC [13]: ≦.06 μg/ml
- MIC [14]: 0.25 µg/mL (≈ 0.139 µM)
- MIC [15]: 0.5 µg/mL (≈ 0.279 µM)
- MIC [16]: 0.25 µg/mL (≈ 0.139 µM)
- MIC [17]: 0.25 µg/mL (≈ 0.139 µM)
- MIC [18]: 0.25 µg/mL (≈ 0.139 µM)
- MIC [19]: ≦.06 μg/ml
- MIC [20]: 8 µg/mL (≈ 4.46 µM)
- MIC [21]: ≦.06 μg/ml
- MIC [22]: ≦.06 μg/ml
- Mean geometric MIC, Vancomycin Resistant Strains [23]: >51 µg/mL
- Mean geometric MIC, Vancomycin Sensitive Strains [24]: 1.5 µg/mL
